The text below walks through data of patent US20130324530A1 (Novartis AG, priority 2010, published 2013).

The subject of experiment [1] is neointima formation. The following applies: rats; cited from earlier work.
The target in experiment [2] is Cdk9/cyclinT1 (Homo sapiens, UniProt P50750). As to the kind of experiment: Cdk9/CyclinT1 IMAP assay.
Experimental: The final total protein concentration in the assay is 4 nM. […] The final concentration of peptide substrate is 100 nM. […] The final concentration of ATP substrate is 6 uM. IMAP (Immobilized Metal Assay for Phosphochemicals) Progressive Binding reagent is purchased from Molecular Devices, cat#R8139. Fluorescence polarization (FP) is used for detection. The 5TAMRA-cdk7tide peptide is phosphorylated by Cdk9/cyclinT1 kinase using the ATP substrate. The Phospho-5TAMRA-cdk7tide peptide substrate is bound to the IMAP Progressive Binding Reagent. […] IMAP Progressive Binding Reagent is diluted 1:800 in 100% 1× Solution A from Molecular Devices, cat#R7285.
General protocol is as follows: To 10 ul of cdk9/cyclinT1, 0.5 ul of test compound in dimethyl sulfoxide is added. [sequence]-cdk7tide and ATP are mixed. 10 ul of the 5TAMRA-cdk7tide/ATP mix is added to start the reaction. The reaction is allowed to proceed for 4.5 hrs. 60 uL of IMAP Progressive Binding Reagent is added.

Where only a bound is given, the exact number is not on record here.

Cdk9/cyclinT1, sequence (P50750 whole entry): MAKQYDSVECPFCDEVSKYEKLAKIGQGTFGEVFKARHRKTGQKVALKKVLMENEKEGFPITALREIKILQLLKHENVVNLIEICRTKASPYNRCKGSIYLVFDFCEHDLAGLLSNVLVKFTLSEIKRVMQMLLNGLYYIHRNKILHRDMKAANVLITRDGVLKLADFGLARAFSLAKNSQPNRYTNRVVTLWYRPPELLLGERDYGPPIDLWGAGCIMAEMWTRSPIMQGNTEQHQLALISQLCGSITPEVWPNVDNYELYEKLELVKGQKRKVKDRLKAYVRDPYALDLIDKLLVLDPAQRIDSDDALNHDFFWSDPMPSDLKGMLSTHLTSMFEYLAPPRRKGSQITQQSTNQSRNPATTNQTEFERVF
Cdk9/cyclinT1, sequence (O60563 whole entry partner): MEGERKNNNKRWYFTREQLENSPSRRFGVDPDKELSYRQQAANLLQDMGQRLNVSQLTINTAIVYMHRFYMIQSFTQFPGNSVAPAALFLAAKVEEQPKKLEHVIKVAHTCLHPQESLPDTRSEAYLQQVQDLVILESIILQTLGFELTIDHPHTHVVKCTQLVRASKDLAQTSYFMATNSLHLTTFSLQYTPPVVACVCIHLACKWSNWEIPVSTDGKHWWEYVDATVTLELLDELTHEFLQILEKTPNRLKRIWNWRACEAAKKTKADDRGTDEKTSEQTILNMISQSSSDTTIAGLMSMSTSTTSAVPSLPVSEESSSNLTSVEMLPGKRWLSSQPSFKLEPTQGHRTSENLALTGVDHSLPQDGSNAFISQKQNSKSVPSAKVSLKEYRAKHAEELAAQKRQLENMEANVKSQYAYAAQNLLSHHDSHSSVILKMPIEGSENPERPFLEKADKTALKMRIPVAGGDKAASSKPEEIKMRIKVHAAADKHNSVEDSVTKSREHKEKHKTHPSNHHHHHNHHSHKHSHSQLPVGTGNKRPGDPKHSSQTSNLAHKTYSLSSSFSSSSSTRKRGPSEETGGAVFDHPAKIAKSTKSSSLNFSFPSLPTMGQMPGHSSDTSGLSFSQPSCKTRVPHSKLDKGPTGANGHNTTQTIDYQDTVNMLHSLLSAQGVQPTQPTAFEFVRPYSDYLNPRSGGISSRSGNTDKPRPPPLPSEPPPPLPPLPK

Regarding `COc1ccc(CNc2nc(N(CCO)CCO)nc3c2ncn3C(C)C)cc1` [CVT-313], in experiment [1], the “inhibition of neointima formation” value is on record as “greater than 80%”.

In experiment [2], `NCCCNc1cc(-c2cncc(NCc3cccc(F)c3)c2)c(Cl)cn1` [Compound 60] gave an IC50 of less than 8 nM. `NCCCCNc1cc(-c2cncc(NCc3cccc(F)c3)c2)c(Cl)cn1` [Compound 61] registered an IC50 in experiment [2] of less than 8 nM. Consider `O[C@H]1CC[C@H](Nc2cc(-c3cncc(NCc4cccc(F)c4)c3)c(Cl)cn2)CC1` [Compound 62], for which the IC50 in experiment [2] is less than 8 nM. Compound `N[C@H]1CC[C@H](Nc2cc(-c3cncc(NCC4CCOCC4)c3)c(Cl)cn2)CC1` [Compound 63, N2′-(trans-4-aminocyclohexyl)-5′-chloro-N5-((tetrahydro-2H-pyran-4-yl)methyl)-3,4′-bipyridine-2′,5-diamine] gave an IC50 in experiment [2] of 18 nM. Turning to `N[C@H]1CC[C@H](Nc2cc(-c3cncc(NCc4cc(F)cc(F)c4)c3)c(Cl)cn2)CC1` [Compound 64], in experiment [2], the IC50 was less than 8 nM. Same read-out and setting: next, `Clc1cnc(N[C@H]2CC[C@H](NC[C@@H]3CCCO3)CC2)cc1-c1cc(NCC2CCOCC2)cnc1Cl` [Compound 65]: less than 8 nM. Take `Fc1cccc(CNc2cc(-c3cc(NC4CCCC4)ncc3Cl)cnc2N2CCOCC2)c1` [Compound 66]: half-maximal inhibition in experiment [2] (IC50) required 1490 nM.

In experiment [2], `C[C@@H](CO)Nc1cc(-c2cncc(NCC3CCOCC3)c2)c(Cl)cn1` [Compound 67] showed an IC50 of 335 nM. `OCCNc1cc(-c2cncc(NCC3CCOCC3)c2)c(Cl)cn1` [Compound 68] showed an IC50 in experiment [2] of 820 nM.

In turn, `CN1CCC(CNc2cc(-c3cncc(NCc4cccc(F)c4)c3)c(Cl)cn2)CC1` [Compound 69] came in with an IC50 in experiment [2] of less than 8 nM. In experiment [2], `Fc1cccc(CNc2cncc(-c3cc(NCC4CCOCC4)ncc3Cl)c2)c1` [Compound 70] displayed an IC50 of 9 nM. Regarding `N[C@H]1CC[C@H](Nc2cc(-c3cncc(NCc4ccncc4)c3)c(Cl)cn2)CC1` [Compound 71], the IC50 in experiment [2] is less than 8 nM. In experiment [2], `CO[C@H](CN[C@H]1CC[C@H](Nc2cc(-c3cc(NCC4CCOCC4)cnc3Cl)c(Cl)cn2)CC1)C(F)(F)F` [Compound 72, 2,5′-dichloro-N5-((tetrahydro-2H-pyran-4-yl)methyl)-N2′-(trans-4-((R)-3,3,3-trifluoro-2-methoxypropylamino)cyclohexyl)-3,4′-bipyridine-2′,5-diamine] came in with an IC50 of 7 nM. Same read-out and setting: the result for `O[C@@H](CN[C@H]1CC[C@H](Nc2cc(-c3cc(NCC4CCOCC4)cnc3Cl)c(Cl)cn2)CC1)C(F)(F)F` [Compound 73] reads 2 nM; that for `O[C@H](CN[C@H]1CC[C@H](Nc2cc(-c3cc(NCC4CCOCC4)cnc3Cl)c(Cl)cn2)CC1)C(F)(F)F` [Compound 74, (R)-3-(trans-4-(2,5′-dichloro-5-((tetrahydro-2H-pyran-4-yl)methyl)amino-3,4′-bipyridin-2′-ylamino)cyclohexylamino)-1,1,1-trifluoropropan-2-ol], 1 nM. `Clc1cnc(N[C@H]2CC[C@H](N3CCCC3)CC2)cc1-c1cc(NCC2CCOCC2)cnc1Cl` [Compound 76, 2,5′-dichloro-N2′-(trans-4-(pyrrolidin-1-yl)cyclohexyl)-N5-((tetrahydro-2H-pyran-4-yl)methyl)-3,4′-bipyridine-2′,5-diamine]: the concentration for half-maximal inhibition (IC50) in experiment [2] was determined as 35 nM.

In experiment [2], `N[C@H]1CC[C@H](Nc2cc(-c3cnc(Cl)c(NCC4CCOCC4)c3)c(Cl)cn2)CC1` [Compound 77, N2′-(trans-4-aminocyclohexyl)-5′,6-dichloro-N5-((tetrahydro-2H-pyran-4-yl)methyl)-3,4′-bipyridine-2′,5-diamine] yielded an IC50 of less than 8 nM. `COCCN[C@H]1CC[C@H](Nc2cc(-c3cnc(Cl)c(NCC4CCOCC4)c3)c(Cl)cn2)CC1` [Compound 78, 5′,6-dichloro-N2′-(trans-4-(2-methoxyethylamino)cyclohexyl)-N5-((tetrahydro-2H-pyran-4-yl)methyl)-3,4′-bipyridine-2′,5-diamine]: in experiment [2], the IC50 is less than 8 nM.

For the compound `N[C@H]1CC[C@H](Nc2cc(-c3cc(NCC4CCOCC4)cnc3Cl)c(Cl)cn2)CC1` [Compound 79], the IC50 in experiment [2] is less than 8 nM.

Regarding `OC[C@H]1CC[C@H](Nc2cc(-c3cnc(Cl)c(NCC4CCOCC4)c3)c(Cl)cn2)CC1` [Compound 80], the IC50 in experiment [2] is less than 8 nM. The compound `Clc1cnc(N[C@H]2CC[C@H](N3CCCC3)CC2)cc1-c1cnc(Cl)c(NCC2CCOCC2)c1` [Compound 81] gave an IC50 in experiment [2] of 45 nM.

In turn, `COCCN[C@H]1CC[C@H](Nc2cc(-c3cncc(NCc4cccc(F)c4)c3)c(Cl)cn2)CC1` [Compound 82] came in with an IC50 in experiment [2] of less than 8 nM.

Compound `NC[C@H]1CC[C@H](Nc2cc(-c3cnc(Cl)c(NCC4CCOCC4)c3)c(Cl)cn2)CC1` [Compound 83] returned an IC50 in experiment [2] of less than 8 nM. Turning to `Fc1cccc(CNc2cncc(-c3cc(N[C@H]4CC[C@H](N5CCCC5)CC4)ncc3Cl)c2)c1` [Compound 84], the IC50 in experiment [2] is less than 8 nM. Consider `COc1ncc(-c2cc(N[C@H]3CC[C@H](N)CC3)ncc2Cl)cc1NCC1CCOCC1` [Compound 85], for which the IC50 in experiment [2] is 96 nM. As for `O[C@H]1CC[C@H](Nc2cc(-c3cnc(Cl)c(NCC4CCOCC4)c3)c(Cl)cn2)CC1` [Compound 86], the IC50 in experiment [2] is less than 8 nM.

Turning to `N[C@H]1CC[C@H](Nc2cc(-c3cnc(O)c(NCC4CCOCC4)c3)c(Cl)cn2)CC1` [Compound 87, 2′-(trans-4-aminocyclohexylamino)-5′-chloro-5-((tetrahydro-2H-pyran-4-yl)methyl)amino-3,4′-bipyridin-6-ol], the IC50 in experiment [2] stood at 420 nM. On the same count and under the same terms, the result for `N[C@H]1CC[C@H](Nc2cc(-c3cncc(OCc4cccc(F)c4)c3)c(Cl)cn2)CC1` [Compound 88] reads less than 1 nM; that for `NC[C@H]1CC[C@H](Nc2cc(-c3cncc(OCc4cccc(F)c4)c3)c(Cl)cn2)CC1` [Compound 89], less than 1 nM. On the same count and under the same terms, next, `O[C@H]1CCCC[C@@H]1N[C@H]1CC[C@H](Nc2cc(-c3cc(NCC4CCOCC4)cnc3Cl)c(Cl)cn2)CC1` [Compound 90]: 2.8 nM; `O[C@H]1CCCC[C@@H]1N[C@H]1CC[C@H](Nc2cc(-c3cnc(Cl)c(NCC4CCOCC4)c3)c(Cl)cn2)CC1` [Compound 91]: 2.7 nM. Same read-out and setting: next, `O[C@H]1CCCC[C@@H]1N[C@H]1CC[C@H](Nc2cc(-c3cnc(F)c(NCC4CCOCC4)c3)c(Cl)cn2)CC1` [Compound 92]: 1.8 nM.

Usually IC50 stands for the concentration at which inhibition is half-maximal.
